The values that follow come from ChEMBL document CHEMBL5500389, “Discovery of the Selective and Orally Available Galectin-1 Inhibitor GB1908 as a Potential Treatment for Lung Cancer” (J Med Chem, 2024).

In data set [1] the target is T1, Galectin-1 (Homo sapiens, UniProt P09382). Nature of the data set: Binding affinity to human galectin-1 assessed as dissociation constant by fluorescein probe based fluorescence polarization assay. (In general: Fluorescence polarisation rises when a labelled molecule tumbles more slowly, as on binding a larger partner.)
T1 sequence (P09382 whole entry): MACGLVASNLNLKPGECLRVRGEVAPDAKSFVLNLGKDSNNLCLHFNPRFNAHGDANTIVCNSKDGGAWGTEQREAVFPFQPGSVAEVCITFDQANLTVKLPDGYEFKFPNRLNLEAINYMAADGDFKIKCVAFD
A short description of data set [2]: Apparent permeability across apical to basal side in human Caco-2 cells at 10 uM incubated for 90 mins by LC-MS/MS analysis. In general terms: Caco-2 cells form a polarised layer with tight junctions and transporters.
Data set [3] in a line: Apparent permeability across basal to apical side in human Caco-2 cells at 10 uM incubated for 90 mins by LC-MS/MS analysis.
Data set [4] can be described thus: Efflux ratio of apparent permeability across apical to basal side over basal to apical side in human Caco-2 cells at 10 uM incubated for 90 mins by LC-MS/MS analysis.
A further data set can be described thus: physchem. The following applies: octanol/potassium phosphate buffer, pH 7.4.
Data set [5] has as its target T2, Galectin-1 (Mus musculus, UniProt P16045). The experiment in a line: Binding affinity to mouse galectin-1 assessed as dissociation constant by fluorescein probe based fluorescence polarization assay.
Data set [6] is described as follows: Stability in human hepatocytes assessed as hepatic intrinsic clearance at 2 uM measured per million cells for 15 to 120 mins by LC-MS/MS analysis. The format is ADME, cell-based, Hepatocyte. The following applies: time 15-120 min, read-out: CLH.
The nature of data set [7]: Stability in mouse hepatocytes assessed as hepatic intrinsic clearance at 2 uM measured per million cells for 15 to 120 mins by LC-MS/MS analysis. Format: ADME, cell-based, Hepatocyte. The following applies: time 15-120 min, read-out: CLH.
The target of data set [8] is T1, Galectin-1. Nature of the data set: Binding affinity to human galectin-1 assessed as dissociation constant by fluorescence polarization assay.
For data set [9], the target named is T2, Galectin-1. The experiment in a line: Binding affinity to mouse galectin-1 assessed as dissociation constant by competitive fluorescence polarization assay.
Data set [10] has as its target T1, Galectin-1. The experiment in a line: Binding affinity to human galectin-1 assessed as dissociation constant by competitive fluorescence polarization assay.
In data set [11] the target is Galectin-3 (Homo sapiens, UniProt P17931). The experiment in a line: Binding affinity to human galectin-3 assessed as dissociation constant by competitive fluorescence polarization assay.
Galectin-3 (Homo sapiens, UniProt P17931), sequence (P17931 whole entry): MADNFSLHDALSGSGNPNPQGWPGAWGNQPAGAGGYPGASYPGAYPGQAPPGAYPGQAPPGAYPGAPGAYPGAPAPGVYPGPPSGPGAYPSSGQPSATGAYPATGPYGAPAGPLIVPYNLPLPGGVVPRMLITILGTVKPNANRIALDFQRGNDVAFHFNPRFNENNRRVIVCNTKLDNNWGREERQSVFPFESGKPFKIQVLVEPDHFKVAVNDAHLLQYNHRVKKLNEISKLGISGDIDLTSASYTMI
Data set [12] deals with Galectin-3 (Mus musculus, UniProt P16110). The experiment in a line: Binding affinity to mouse galectin-3 assessed as dissociation constant by competitive fluorescence polarization assay.
Galectin-3 (Mus musculus, UniProt P16110), sequence (P16110 whole entry): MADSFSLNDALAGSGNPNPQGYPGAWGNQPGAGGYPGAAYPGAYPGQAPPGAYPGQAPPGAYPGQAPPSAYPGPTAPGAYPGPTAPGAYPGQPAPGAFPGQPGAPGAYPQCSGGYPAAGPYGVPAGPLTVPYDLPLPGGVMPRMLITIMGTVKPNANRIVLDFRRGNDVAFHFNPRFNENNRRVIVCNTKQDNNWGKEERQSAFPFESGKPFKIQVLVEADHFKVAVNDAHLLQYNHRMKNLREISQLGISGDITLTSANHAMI

Where only a bound is given, the exact number is not on record here.

The term Kd denotes the concentration at which binding is half-saturated. By Papp A→B is commonly meant how fast a substance crosses the layer from the apical side. One may read the Papp B→A as how fast a substance crosses the layer from the basolateral side. The term efflux ratio denotes the permeability from basolateral to apical divided by that in the opposite direction, in the common usage. As a reminder, the logD is the decadic logarithm of the distribution of all forms, ionised or not, between an organic phase and buffer at a given pH. Read a low logD as a more hydrophilic compound.

T2 sequence (P16045 whole entry): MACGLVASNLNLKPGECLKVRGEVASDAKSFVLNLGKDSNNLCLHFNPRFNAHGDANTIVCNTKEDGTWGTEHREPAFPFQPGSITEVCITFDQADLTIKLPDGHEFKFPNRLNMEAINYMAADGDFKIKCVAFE

Consider `Nc1csc(-c2cn([C@@H]3[C@@H](O)[C@@H](Sc4cc(Cl)c(F)c(Cl)c4)O[C@H](CO)[C@@H]3O)nn2)n1`, for which, at Galectin-1 [1], the Kd was determined as 0.62 µM. Also, the apical-to-basolateral permeability (Papp A→B) at 1.5 h, 10 µM in data set [2] is 3.1 ×10⁻⁶ cm/s. For the same molecule, the Papp B→A at 1.5 h, 10 µM in data set [3] is 42 ×10⁻⁶ cm/s. Further, in [4], the efflux ratio at 1.5 h, 10 µM was found to be 14. The same molecule registered a logD at 1 h in “physchem” of 2.5.

On to `OC[C@H]1O[C@H](Sc2cc(Cl)c(F)c(Cl)c2)[C@H](O)[C@@H](n2cc(-c3csc(O)n3)nn2)[C@H]1O`, for which the Kd on Galectin-1 [1] came out at 0.08 µM. Also, the Papp A→B at 1.5 h, 10 µM in data set [2] turned out to be 0.3 ×10⁻⁶ cm/s. For the same molecule, the Papp B→A at 1.5 h, 10 µM in data set [3] was 35 ×10⁻⁶ cm/s. For the same molecule, the efflux ratio at 1.5 h, 10 µM in data set [4] was determined as 117. The molecule also displayed a logD at 1 h in “physchem” of 2.8.

Consider `CO[C@@H]1[C@@H](n2cc(-c3csc(O)n3)nn2)[C@@H](O)[C@@H](CO)O[C@@H]1Sc1cc(Cl)c(F)c(Cl)c1`, for which the Kd at Galectin-1 [1] is 0.034 µM; at Galectin-1 [5] it was 0.043 µM. Further, the Papp A→B at 1.5 h, 10 µM in data set [2] was 0.9 ×10⁻⁶ cm/s. Also, the Papp B→A at 1.5 h, 10 µM in data set [3] came out at 57 ×10⁻⁶ cm/s. In addition, the efflux ratio at 1.5 h, 10 µM in data set [4] worked out at 63. Also, the hepatocyte CLint at 2 µM in data set [6] was 2.5 µL/min/1e6 cells; in [7], < 1.5 µL/min/1e6 cells. The same molecule showed a logD at 1 h in the data set “physchem” of 3.3.

In the case of `OC[C@H]1O[C@H](Sc2cc(Cl)c(F)c(Cl)c2)[C@H](O)[C@@H](n2cc(-c3nccs3)nn2)[C@H]1O`, the efflux ratio at 1.5 h, 10 µM in data set [4] was determined as 2.8.

For the molecule `CO[C@@H]1[C@@H](n2cc(-c3csc(N)n3)nn2)[C@@H](O)[C@@H](CO)O[C@@H]1Sc1cc(Cl)c(F)c(Cl)c1`, the Kd at Galectin-1 [1] was found to be 0.098 µM; on Galectin-1 [5], 0.091 µM. Besides, in [2], the Papp A→B at 1.5 h, 10 µM was found to be 3.5 ×10⁻⁶ cm/s. Moreover, in [3], the Papp B→A at 1.5 h, 10 µM was determined as 39 ×10⁻⁶ cm/s. Besides, the efflux ratio at 1.5 h, 10 µM in [4] stood at 11. The hepatocyte CLint at 2 µM came to 4.6 µL/min/1e6 cells in data set [6] and 1.6 µL/min/1e6 cells in data set [7]. Besides, the logD at 1 h in the data set “physchem” was 3.

As to `O=C(N[C@H]1[C@@H](O)[C@@H](CO)O[C@@H](S[C@@H]2O[C@H](CO)[C@H](O)[C@H](n3cc(-c4csc(O)n4)nn3)[C@H]2O)[C@@H]1O)c1ccc2c(c1)C(=O)OC21c2ccc(O)cc2Oc2cc(O)ccc21`, the figures for the dissociation constant Kd at Galectin-1 [8] and on Galectin-1 [9] were 0.02 µM and 0.029 µM, respectively.

Regarding `OC[C@H]1O[C@@H](S[C@@H]2O[C@H](CO)[C@H](O)[C@H](n3cc(-c4csc(O)n4)nn3)[C@H]2O)[C@H](O)[C@@H](n2cc(-c3cc(F)c(F)c(F)c3)nn2)[C@H]1O`, the Kd on Galectin-1 [10] worked out at 0.004 µM; on Galectin-3 [11] it was 0.001 µM; on Galectin-3 [12], 0.034 µM.
